Common to all, as to assay type: functional, cell-based
In test [1] the test system is A549. In words: Cytotoxicity against human A549 cells assessed as reduction in cell viability by CCK-8 assay. A general note: Tetrazolium dyes change colour on reduction, which living cells bring about.
Test [2] concerns PC-3M. Description: Cytotoxicity against human PC-3M cells assessed as reduction in cell viability by CCK-8 assay.
The test system of test [3] is MCF7. In words: Cytotoxicity against human MCF7 cells assessed as reduction in cell viability by CCK-8 assay.
For test [4], the system named is HepG2. In words: Cytotoxicity against human HepG2 cells assessed as reduction in cell viability by CCK-8 assay.
The test system of test [5] is PANC-1. Description: Cytotoxicity against human PANC-1 cells assessed as reduction in cell viability by CCK-8 assay.

The IC50 is the concentration that gives 50% inhibition.

Molecules are shown by their SMILES.

`C=C(C)[C@@H]1CC[C@]2(C(=O)OCCCCCCn3cc(CCN)c4ccccc43)CC[C@]3(C)[C@H](C[C@H]4OC(=O)C[C@@H](O)[C@]5(C)[C@@H]4[C@@]3(C)CC[C@H]5C(=C)C)[C@@H]12`: the IC50 in test [1] worked out at 6.5 µM; in test [2], 6 µM; in test [3], 5.87 µM; in test [4] it was 1.03 µM; in test [5], 7.02 µM.
On the same counts, the results for `C=C(C)[C@@H]1CC[C@]2(C(=O)OCCCCCn3ccnc3)CC[C@]3(C)[C@H](C[C@H]4OC(=O)C[C@@H](O)[C@]5(C)[C@@H]4[C@@]3(C)CC[C@H]5C(=C)C)[C@@H]12` are 25.2 µM, 11.8 µM, 45.6 µM, 16.1 µM and 32.3 µM.
On the same counts, the results for `C=C(C)[C@@H]1CC[C@]2(C(=O)OCCCCCn3ccnc3CC)CC[C@]3(C)[C@H](C[C@H]4OC(=O)C[C@@H](O)[C@]5(C)[C@@H]4[C@@]3(C)CC[C@H]5C(=C)C)[C@@H]12` are 14.3 µM, 12.5 µM, 50.2 µM, 6.1 µM and 12.8 µM.
For `C=C(C)[C@@H]1CC[C@]2(C(=O)OCCCCn3cnc(C)c3)CC[C@]3(C)[C@H](C[C@@H](O)[C@@H]4[C@@]5(C)C(CC(=O)OC)OC(C)(C)C5CC[C@]43C)[C@@H]12` (stereo not given in full) the same measures were 35.4 µM, 25 µM, 65.6 µM, 19.9 µM and 38.9 µM.
Turning to `C=C(C)[C@@H]1CC[C@]2(C(=O)OCCCn3cncn3)CC[C@]3(C)[C@H](C[C@@H](O)[C@@H]4[C@@]5(C)C(CC(=O)OC)OC(C)(C)C5CC[C@]43C)[C@@H]12` (stereo not given in full), the IC50 in test [1] was determined as 31.3 µM; in test [2], 43.2 µM; in test [3], 81.6 µM; in test [4], 29.2 µM; in test [5], 57 µM.
As to `C=C(C)[C@@H]1CC[C@]2(C(=O)OCCCn3ccnc3CC)CC[C@]3(C)[C@H](C[C@H]4OC(=O)C[C@@H](O)[C@]5(C)[C@@H]4[C@@]3(C)CC[C@H]5C(=C)C)[C@@H]12`, the IC50 in test [1] was 21.2 µM; in test [2] it was 12.3 µM; in test [3], 47 µM; in test [4], 16.4 µM; in test [5], 26.9 µM.
Consider `C=C(C)[C@@H]1CC[C@]2(C(=O)OCCCn3ccnc3)CC[C@]3(C)[C@H](C[C@H]4OC(=O)C[C@@H](O)[C@]5(C)[C@@H]4[C@@]3(C)CC[C@H]5C(=C)C)[C@@H]12`, for which the 50% inhibitory concentration (IC50) in test [1] is 55.5 µM; in test [2] it was 24.7 µM; in test [3], 48.6 µM; in test [4], over 200 µM; in test [5], 89.1 µM.
On the same counts, the results for `C=C(C)[C@@H]1CC[C@]2(C(=O)OCCCCCCn3cnc(C)c3)CC[C@]3(C)[C@H](C[C@@H](O)[C@@H]4[C@@]5(C)C(CC(=O)OC)OC(C)(C)C5CC[C@]43C)[C@@H]12` (stereo not given in full) are 25 µM, 18.4 µM, 33.4 µM, 12.8 µM and 17.7 µM.
For `C=C(C)[C@@H]1CC[C@]2(C(=O)OCCCCCCCCCCn3cnc(C)c3)CC[C@]3(C)[C@H](C[C@@H](O)[C@@H]4[C@@]5(C)C(CC(=O)OC)OC(C)(C)C5CC[C@]43C)[C@@H]12` (stereo not given in full) the same measures were 22.4 µM, 12.7 µM, 33.7 µM, 6.76 µM and 12.3 µM.
For `C=C(C)[C@@H]1CC[C@]2(C(=O)OCCCCCCn3ccnc3C)CC[C@]3(C)[C@H](C[C@H]4OC(=O)C[C@@H](O)[C@]5(C)[C@@H]4[C@@]3(C)CC[C@H]5C(=C)C)[C@@H]12` the same measures were 18.9 µM, 14 µM, 76.2 µM, 12.9 µM and 17.9 µM.
On to `C=C(C)[C@@H]1CC[C@]2(C(=O)OCCCCn3ccnc3)CC[C@]3(C)[C@H](C[C@H]4OC(=O)C[C@@H](O)[C@]5(C)[C@@H]4[C@@]3(C)CC[C@H]5C(=C)C)[C@@H]12`, for which the IC50 came to 32.7 µM in test [1]; 28.2 µM in test [2]; 84.4 µM in test [3]; 20.9 µM in test [4]; 50.1 µM in test [5].
In the case of `C=C(C)[C@@H]1CC[C@]2(C(=O)OCCCBr)CC[C@]3(C)[C@H](C[C@@H](O)[C@@H]4[C@@]5(C)C(CC(=O)OC)OC(C)(C)C5CC[C@]43C)[C@@H]12` (stereo not given in full), the IC50 in test [1] worked out at 41.2 µM; in test [2] it was 47.6 µM; in test [3], 98.8 µM; in test [4] it was 28.6 µM; in test [5] it was 70.7 µM.
For `C=C(C)[C@@H]1CC[C@]2(C(=O)OCCCCCCBr)CC[C@]3(C)[C@H](C[C@H]4OC(=O)C[C@@H](O)[C@]5(C)[C@@H]4[C@@]3(C)CC[C@H]5C(=C)C)[C@@H]12` the same measures were 27.6 µM, 16.1 µM, 75.7 µM, 12.3 µM and 21.8 µM.
For `C=C(C)[C@@H]1CC[C@]2(C(=O)OCCCCCCCCCCn3cncn3)CC[C@]3(C)[C@H](C[C@H]4OC(=O)C[C@@H](O)[C@]5(C)[C@@H]4[C@@]3(C)CC[C@H]5C(=C)C)[C@@H]12` the same measures were 29.4 µM, 19.9 µM, 46.2 µM, 14.6 µM and 36.4 µM.
For `C=C(C)[C@@H]1CC[C@]2(C(=O)OCCCCCCn3ccnc3CC)CC[C@]3(C)[C@H](C[C@H]4OC(=O)C[C@@H](O)[C@]5(C)[C@@H]4[C@@]3(C)CC[C@H]5C(=C)C)[C@@H]12` the same measures were 14.6 µM, 12.9 µM, 48.8 µM, 3.59 µM and 17.5 µM.
On to `C=C(C)[C@@H]1CC[C@]2(C(=O)OCCCCCn3cc(CCN)c4ccccc43)CC[C@]3(C)[C@H](C[C@@H](O)[C@@H]4[C@@]5(C)C(CC(=O)OC)OC(C)(C)C5CC[C@]43C)[C@@H]12` (stereo not given in full), for which the 50% inhibitory concentration (IC50) in test [1] came out at 6.63 µM; in test [2], 3.87 µM; in test [3], 18.1 µM; in test [4], 1.7 µM; in test [5], 5.81 µM.
For `C=C(C)[C@@H]1CC[C@]2(C(=O)O)CC[C@]3(C)[C@H](C[C@H]4OC(=O)C[C@@H](O)[C@]5(C)[C@@H]4[C@@]3(C)CC[C@H]5C(=C)C)[C@@H]12` the same measures were 145 µM, 134 µM, over 200 µM, over 200 µM and over 200 µM.
On the same counts, the results for `C=C(C)[C@@H]1CC[C@]2(C(=O)OCCCCCCCCCCn3cncn3)CC[C@]3(C)[C@H](C[C@@H](O)[C@@H]4[C@@]5(C)C(CC(=O)OC)OC(C)(C)C5CC[C@]43C)[C@@H]12` (stereo not given in full) are 77.8 µM, 23.5 µM, 71 µM, 36.4 µM and 104 µM.
For `C=C(C)[C@@H]1CC[C@]2(C(=O)OCCCCCCn3cc(CCN)c4ccccc43)CC[C@]3(C)[C@H](C[C@@H](O)[C@@H]4[C@@]5(C)C(CC(=O)OC)OC(C)(C)C5CC[C@]43C)[C@@H]12` (stereo not given in full) the same measures were 5.97 µM, 3.99 µM, 24.5 µM, 1.91 µM and 7.06 µM.
For `C=C(C)[C@@H]1CC[C@]2(C(=O)OCCCn3cnc(C)c3)CC[C@]3(C)[C@H](C[C@H]4OC(=O)C[C@@H](O)[C@]5(C)[C@@H]4[C@@]3(C)CC[C@H]5C(=C)C)[C@@H]12`, the IC50 in test [1] was 39.5 µM; in test [2] it was 18.5 µM; in test [3], 48.6 µM; in test [4] it was 35.3 µM; in test [5] it was 83.8 µM.
For `C=C(C)[C@@H]1CC[C@]2(C(=O)OCCCCCCBr)CC[C@]3(C)[C@H](C[C@@H](O)[C@@H]4[C@@]5(C)C(CC(=O)OC)OC(C)(C)C5CC[C@]43C)[C@@H]12` (stereo not given in full) the same measures were 45.5 µM, 29 µM, 73 µM, 22.2 µM and 37.5 µM.
For `C=C(C)[C@@H]1CC[C@]2(C(=O)OCCCn3ccnc3CC)CC[C@]3(C)[C@H](C[C@@H](O)[C@@H]4[C@@]5(C)C(CC(=O)OC)OC(C)(C)C5CC[C@]43C)[C@@H]12` (stereo not given in full) the same measures were 27.4 µM, 24.9 µM, 66.2 µM, 18.9 µM and 47.7 µM.
On the same counts, the results for `C=C(C)[C@@H]1CC[C@]2(C(=O)OCCCCBr)CC[C@]3(C)[C@H](C[C@H]4OC(=O)C[C@@H](O)[C@]5(C)[C@@H]4[C@@]3(C)CC[C@H]5C(=C)C)[C@@H]12` are 89 µM, 82.2 µM, over 200 µM, 124 µM and 200 µM.
Regarding `C=C(C)[C@@H]1CC[C@]2(C(=O)OCCCCCn3cncn3)CC[C@]3(C)[C@H](C[C@@H](O)[C@@H]4[C@@]5(C)C(CC(=O)OC)OC(C)(C)C5CC[C@]43C)[C@@H]12` (stereo not given in full), the half-inhibitory concentration (IC50) in test [1] amounted to 57.9 µM; in test [2], 32.3 µM; in test [3] it was 81.6 µM; in test [4], 37.2 µM; in test [5] it was 90 µM.
`C=C(C)[C@@H]1CC[C@]2(C(=O)OCCCCBr)CC[C@]3(C)[C@H](C[C@@H](O)[C@@H]4[C@@]5(C)C(CC(=O)OC)OC(C)(C)C5CC[C@]43C)[C@@H]12` (stereo not given in full): the half-inhibitory concentration (IC50) in test [1] amounted to 46 µM; in test [2], 53.3 µM; in test [3] it was 82 µM; in test [4] it was 27.6 µM; in test [5], 72.8 µM.

These data come from ChEMBL document CHEMBL5143734, “Seco-Lupane Triterpene Derivatives Induce Ferroptosis through GPX4/ACSL4 Axis and Target Cyclin D1 to Block the Cell Cycle” (J Med Chem, 2022).
